Each compound was assayed against T1, Broad substrate specificity ATP-binding cassette transporter ABCG2 (Mus musculus, UniProt Q7TMS5) (assay: TP_TRANSPORTER: transepithelial transport (basal to apical) in BCRP-expressing MDCKII cells). Conditions: dog, mdck-ii.
T1 sequence (Q7TMS5 whole entry): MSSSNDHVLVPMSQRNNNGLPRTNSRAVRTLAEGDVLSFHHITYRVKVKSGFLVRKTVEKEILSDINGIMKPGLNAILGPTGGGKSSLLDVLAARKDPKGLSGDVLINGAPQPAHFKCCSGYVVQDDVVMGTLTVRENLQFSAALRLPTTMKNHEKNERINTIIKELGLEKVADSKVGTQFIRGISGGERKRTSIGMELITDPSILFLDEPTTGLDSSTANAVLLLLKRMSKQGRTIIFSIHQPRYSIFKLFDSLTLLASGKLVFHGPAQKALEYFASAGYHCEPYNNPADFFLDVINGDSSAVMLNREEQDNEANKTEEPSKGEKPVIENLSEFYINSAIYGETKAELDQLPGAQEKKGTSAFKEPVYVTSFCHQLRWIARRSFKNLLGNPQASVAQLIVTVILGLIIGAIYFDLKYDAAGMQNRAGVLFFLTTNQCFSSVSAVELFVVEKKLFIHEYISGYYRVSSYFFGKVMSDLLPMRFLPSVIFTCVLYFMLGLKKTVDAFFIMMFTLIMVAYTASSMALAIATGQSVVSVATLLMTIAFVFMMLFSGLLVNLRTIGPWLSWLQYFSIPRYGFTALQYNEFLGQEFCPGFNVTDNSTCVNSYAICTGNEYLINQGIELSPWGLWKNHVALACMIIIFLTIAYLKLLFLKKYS
Assay type: functional, cell-based

| Activity | Structure (SMILES) |
| --- | --- |
| substrate [] | COc1cc([C@@H]2c3cc4c(cc3[C@@H](O[C@@H]3O[C@@H]5CO[C@@H](C)O[C@H]5[C@H](O)[C@H]3O)[C@H]3COC(=O)[C@H]23)OCO4)cc(OC)c1O [ETOPOSIDE] |

Each compound was assayed against T1, Broad substrate specificity ATP-binding cassette transporter ABCG2 (assay: TP_TRANSPORTER: drug resistance in BCRP-expressing MEF3.8 cells). Conditions: not given.
Assay type: functional, cell-based

| Activity | Structure (SMILES) |
| --- | --- |
| substrate [] | COc1cccc2c1C(=O)c1c(O)c3c(c(O)c1C2=O)C[C@@](O)(C(=O)CO)C[C@@H]3O[C@H]1C[C@H](N)[C@H](O)[C@H](C)O1 [DOXORUBICIN] |
| substrate [] | CC[C@@]1(O)C(=O)OCc2c1cc1n(c2=O)Cc2cc3c(CN(C)C)c(O)ccc3nc2-1 [TOPOTECAN] |
| substrate [] | COc1cc([C@@H]2c3cc4c(cc3[C@@H](O[C@@H]3O[C@@H]5CO[C@@H](c6cccs6)O[C@H]5[C@H](O)[C@H]3O)[C@H]3COC(=O)[C@H]23)OCO4)cc(OC)c1O [TENIPOSIDE] |

Second part, the compound before the results:

| Structure (SMILES) | Activity |
| --- | --- |
| C(=N\NC1=NCCN1)/c1c2ccccc2c(/C=N/NC2=NCCN2)c2ccccc12 [BISANTRENE] | substrate [] |
| COc1cc([C@@H]2c3cc4c(cc3[C@@H](O[C@@H]3O[C@@H]5CO[C@@H](C)O[C@H]5[C@H](O)[C@H]3O)[C@H]3COC(=O)[C@H]23)OCO4)cc(OC)c1O [ETOPOSIDE] | substrate [] |
| O=C1c2c(O)ccc(O)c2C(=O)c2c(NCCNCCO)ccc(NCCNCCO)c21 [MITOXANTRONE] | substrate [] |
| CC[C@]1(O)C[C@H]2CN(CCc3c([nH]c4ccccc34)[C@@](C(=O)OC)(c3cc4c(cc3OC)N(C=O)[C@H]3[C@@](O)(C(=O)OC)[C@H](OC(C)=O)[C@]5(CC)C=CCN6CC[C@]43[C@@H]65)C2)C1 [VINCRISTINE] | substrate [] |
